Experimental data as given in patent US4556677A, “Alkane and alkene derivatives and their use” (Farmos Group Ltd., priority 1981, dated 1985).
pIC50: −log10 of the molar value. Structures can show the parent of a compound that is named as a salt. Where two headings read alike, the source gives them in different places. One block for each compound: values may come before it.

Columns and labels:
[1] = target: T1, estrogen receptors (Rattus norvegicus, UniProt P06211); assay: affinity to estrogen receptors, competition with 3H-labelled 17-β-estradiol (dextran-charcoal method); assay type: binding; conditions: rat uterus cytosol, Table 1; read-out: Affinity (concentration of compound where 50% competition (inhibition) with 3H-estradiol occurred)
T1 construct: rat uterus cytosol preparation; from tissue; host or cells: rat uterus cytosol
T1 sequence (P06211 1-600): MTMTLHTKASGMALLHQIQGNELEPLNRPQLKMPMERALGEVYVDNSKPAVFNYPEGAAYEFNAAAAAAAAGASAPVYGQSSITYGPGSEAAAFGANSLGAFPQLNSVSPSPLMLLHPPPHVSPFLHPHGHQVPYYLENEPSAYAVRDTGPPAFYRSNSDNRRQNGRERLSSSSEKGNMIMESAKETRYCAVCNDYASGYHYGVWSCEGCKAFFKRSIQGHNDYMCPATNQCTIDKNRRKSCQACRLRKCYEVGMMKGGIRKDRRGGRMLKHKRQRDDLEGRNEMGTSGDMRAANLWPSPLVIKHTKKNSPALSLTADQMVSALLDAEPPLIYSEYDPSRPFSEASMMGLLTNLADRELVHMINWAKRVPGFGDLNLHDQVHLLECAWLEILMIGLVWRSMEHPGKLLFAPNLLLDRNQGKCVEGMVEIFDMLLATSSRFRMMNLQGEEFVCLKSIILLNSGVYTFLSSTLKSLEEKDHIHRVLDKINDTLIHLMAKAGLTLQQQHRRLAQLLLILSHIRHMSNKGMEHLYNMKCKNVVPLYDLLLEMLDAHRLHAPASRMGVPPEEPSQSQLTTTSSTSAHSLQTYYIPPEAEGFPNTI
Method: The affinity to estrogen receptors was determined by the ability of the molecules to compete with ^3 H-labelled 17-β-estradiol in rat uterus cytosol preparation. After incubation, receptor-bound and receptor-unbound ligands were separated by a known dextrancharcoal method. (Korenman, S. G.: "Comparative binding affinity of estrogens and its relation to estrogenic potency". Steroids 13: 163-177, 1969). […] The results in table 1 are shown as follows: | with ^3 H--estradiol occurred

[2] = tested on: transplantable rat mammary adenocarcinoma; assay: effect on transplantable rat mammary adenocarcinoma; assay type: in vivo
Source text: (§1) The anti-tumour effect was investigated in vivo against DMBA-induced rat mammary adenocarcinomas and transplantable mammary adenocarcinoma according to the following methods:
Transplantable rat mammary adenocarcinoma was developed by inoculating pieces of DMBA-induced carcinomas subcutaneously to healthy mature female rats. A tumor which expressed malignant growth was selected for further transplantations.
The effects of compounds mentioned earlier against transplantable rat mammary adenocarcinoma can be seen in table 4.
The figures in table 4 refer to relative sizes compared to controls which is 100.

[3] = tested on: DMBA-induced rat mammary adenocarcinomas; assay: antitumour effect in vivo against DMBA-induced rat mammary adenocarcinomas
Method: as §1
Mammary adenocarcinomas were induced by DMBA in 35-40 days old female rats. Treatment with the molecules to be investigated was started after palpable tumours had appeared. Tumour size and numbers of tumours were evaluated twice a week. Tumour sizes in the control group, treated with solvent, were compared with the test groups.
The antitumour effect in vivo against DMBA-induced mammary carcinomas was investigated as described earlier. […] Compound 2 at the dose of 7.5 mg/kg caused a 63% decrease in the size of tumours compared to the control.

[4] = tested on: immature mouse uterus; assay: estrogenic effect in vivo, immature mouse uterus weight; conditions: for oestrogenic effect, % less than that of oestradiol 0.05 mg/kg: s.c., immature mice; for estrogenic effect (in words): immature mouse uterus weight; for Given alone: oestrogenic effect (in words): Table 2, 0.5 mg/kg
Method: (§2) The estrogen-antiestrogen (progesterone-antiprogesterone) effect in vivo was determined as follows:
The estrogenic properties of the molecules were determined by administering the molecules, suspended in sesam oil, subcutaneously to 21 days old immature mice on three consecutive days. The mice were killed on the fourth day and the uterus was weighed. Estradiol (positive control) increases the weight of the uterus. The weight correlates with the estrogenic effect of the molecules.
The estrogenic effect of compounds of the invention as measured by their ability to increase the weight of immature mouse uterus was usually far less than that of oestradiol, the positive control. […] At the dose of 0.5 mg/kg the oestrogenic effect of compound 1, 7 and 8 were respectively 20%, 75% and 83% less and at the dose of 5 mg/kg the oestrogenic effect of compound 2 was 60% less than that of oestradiol 0.05 mg/kg.
(§3) In Table 2 a summary of the oestrogenic/antioestrogenic and progestanic/antiprogestanic effect of some of the compounds can be seen. The percentages refer to increase/reduction in mice uterus weights.

[5] = tested on: immature mouse uterus; assay: antiestrogenic effect in vivo, inhibition of oestradiol induced uterus weight increase in immature mice; conditions: for antiestrogenic effect (in words): immature mice
Method: as §2
The antiestrogenic effects of the molecules were determined in a similar manner in immature mice. In this case, the ability of the molecules to inhibit estrogen-induced uterus weight increase was investigated, too.
The compound 1 at a dose of 0.5 mg/kg caused a 50% inhibition of oestradiol induced effect on mouse uterus.
as §3

[6] = tested on: MCF-7 human mammary adenocarcinoma cell line; assay: anti-tumour effect in vitro, growth of MCF-7 cells (bioluminescence ATP assay); assay type: cell-based; conditions: MCF-7, Table 3, read-out: Antitumour effect (IC50 = concentration of compound where 50% inhibition of cell growth could be seen)
Method: The anti-tumour effect was studied in vitro as follows:
The growth of MCF-7 cell line (human mammary adenocarcinoma, known to be estrogen-dependent) was evaluated in the presence or absence of estradiol, medroxyprogesterone acetate or the molecules to be investigated. Combinations of molecule plus estradiol and molecule plus medroxyprogesterone were also studied. The amount of living cells after 4 h, 24 h and 48 h incubations were determined by bioluminescence assay (intracellular ATP determination).
The antitumour effects of the compounds had been tested in vitro against MCF-7 human mammary adenocarcinoma cell line and in vivo against DMBA-induced rat mammary adenocarcinomas and transplantable mammary adenocarcinoma.
In table 3 the antitumour effects of certain compounds can be seen.

[7] = tested on: mouse uterus; assay: antiprogestanic/synergistic effect in vivo, given together with medroxyprogesterone acetate, mouse uterus weight; conditions: for Given with medroxyprogesterone acetate: effect (in words) / Given with medroxyprogesterone acetate: reduction in mice uterus weight: Table 2, 0.5 mg/kg, with medroxyprogesterone acetate 0.06 mg/kg
Method: as §2
(§4) The (anti)progestanic effects were studied in a similar manners as the estrogenic ones. Medroxyprogesterone acetate, which decreases uterus weight, was used as reference.
(§5) The progestanic and antiprogestanic effects of compounds were measured as described earlier. The compound No. 2 reduced the weight of mouse uterus by 49% compared to control while medroxyprogesterone acetate gave 40% reduction.
as §3

[8] = tested on: mouse uterus; assay: progestanic effect in vivo, reduction of mouse uterus weight; conditions: for Given alone: progestanic effect (in words) / Given alone: reduction in mice uterus weight: Table 2, 0.5 mg/kg
Method: as §2, §4, §5, §3

[9] = together with medroxyprogesterone acetate
[10] = Table 2, 0.5 mg/kg, with oestradiol 0.05 mg/kg

Compound: CC/C(=C(/c1ccccc1)c1ccc(O)cc1)C1CCCC1 [Compound 1, (E)--2-cyclopentyl-1-(p-hydroxyphenyl)-1-phenyl-1-butene]
pIC50 [1]: 6.00 to 7.00
relative tumour size compared to controls which is 100 ([2]; 1.0 mg/kg): 80
relative tumour size compared to controls which is 100 ([2]; 5.0 mg/kg): 77
relative tumour size compared to controls which is 100 ([2]; 10.0 mg/kg): 58
relative tumour size compared to controls which is 100 ([2]; 20.0 mg/kg): 64
relative tumour size compared to controls which is 100 ([2]; 40.0 mg/kg): 40
decrease in size of tumours compared to the control ([3]; 10 mg/kg): 75%
growth of the tumours (in words) ([3]; 10 mg/kg): the growth of the tumours was slowed
number of the tumours (in words) ([3]; 10 mg/kg): the number of the tumours was decreasing
oestrogenic effect, % less than that of oestradiol 0.05 mg/kg ([4]; 0.5 mg/kg): 20%
estrogenic effect (in words) [4]: dose dependent
inhibition of oestradiol induced effect on mouse uterus ([5]; 0.5 mg/kg): 50%
pIC50 ([6]; Homo sapiens, MCF7): 5.30 to 6.00

Compound: CC/C(=C(\c1ccccc1)c1ccc(OCCN(C)C)cc1)C1CCCC1 [Compound 2, (Z)--2-cyclopentyl-1-(p-(N,N--dimethyl-2-amino-ethoxy)phenyl)-1-phenyl-1-butene, hydrochloride]
pIC50 [1]: 5.00 to 7.00
relative tumour size compared to controls which is 100 ([2]; 1.0 mg/kg): 82
relative tumour size compared to controls which is 100 ([2]; 5.0 mg/kg): 87
relative tumour size compared to controls which is 100 ([2]; 10.0 mg/kg): 69
Given with medroxyprogesterone acetate: effect (in words) [7]: synergistic
Given with medroxyprogesterone acetate: reduction in mice uterus weight [7]: 61%
antiprogestanic / synergistic effect with medroxyprogesterone acetate (in words) [7, 9]: no antiprogestanic effects but a synergistic effect could be seen
decrease in size of tumours compared to the control ([3]; 7.5 mg/kg): 63%
oestrogenic effect, % less than that of oestradiol 0.05 mg/kg ([4]; 5 mg/kg): 60%
Given alone: oestrogenic effect (in words) [4]: oestrogenic
estrogenic effect (in words) [4]: dose dependent
Given alone: progestanic effect (in words) ([8]; given alone): progestanic
Given alone: reduction in mice uterus weight ([8]; given alone): 49%
reduction of mouse uterus weight compared to control ([8]; given alone, dose not given): 49%
inhibition of oestradiol induced effect on mouse uterus ([5]; 5 mg/kg): 50%
Given with oestradiol: effect (in words) [5, 10]: antioestrogenic
Given with oestradiol: reduction in mice uterus weight [5, 10]: 36%
pIC50 ([6]; Homo sapiens, MCF7): 5.00 to 5.30

Compound: CC/C(=C(\c1ccccc1)c1ccc(O)cc1)C1CCCC1 [Compound 3, (Z)-2-cyclopentyl-1-(p-hydroxyphenyl)-1-phenyl-1-butene]
pIC50 [1]: 5.00 to 7.00
pIC50 ([6]; Homo sapiens, MCF7): 5.30 to 6.00

Compound: CCC(C1CCCC1)C(c1ccccc1)c1ccc(O)cc1 (stereo not shown) [Compound 4, 2-cyclopentyl-1-(p-hydroxyphenyl)-1-phenylbutane]
pIC50 [1]: 6.00 to 7.00
pIC50 ([6]; Homo sapiens, MCF7): 5.30 to 6.00

Compound: CC(=O)O[C@]1(C(C)=O)CC[C@H]2[C@@H]3C[C@H](C)C4=CC(=O)CC[C@]4(C)[C@H]3CC[C@@]21C [medroxyprogesterone acetate, Medroxyprogesterone acetate, reference compound]
decrease of mouse uterus weight by medroxyprogesterone acetate alone ([8]; reference compared with compound 8): 20%
reduction of mouse uterus weight by medroxyprogesterone acetate alone ([8]; reference compared with compounds 2 and 11): 40%

Now from value to compound, other results behind:

pIC50 [6]: 5.30 to 6.00
Compound: CCC(C1CCCC1)C(c1ccccc1)c1ccc(O)cc1 (stereo not shown) [Compound 5, 2-cyclopentyl-1-(p-hydroxyphenyl)-1-phenylbutane]
antiprogestanic / synergistic effect with medroxyprogesterone acetate (in words) [7, 9]: slight inhibition of medroxyprogesterone acetate produced effect
estrogenic effect (in words) [4]: did not possess any estrogenic effects of their own
progestanic effect (in words) ([8]; given alone): did not possess progestanic effects
antiestrogenic effect (in words) [5]: not antiestrogenic

pIC50 [6]: 5.30 to 6.00
Compound: CCC(C1CCCC1)C(c1ccccc1)c1ccc(O)cc1 (stereo not shown) [Compound 6, 2-cyclopentyl-1-(p-hydroxyphenyl)-1-phenylbutane]
antiprogestanic / synergistic effect with medroxyprogesterone acetate (in words) [7, 9]: slight inhibition of medroxyprogesterone acetate produced effect
estrogenic effect (in words) [4]: did not possess any estrogenic effects of their own
progestanic effect (in words) ([8]; given alone): did not possess progestanic effects
antiestrogenic effect (in words) [5]: not antiestrogenic

pIC50 [1]: 6.00 to 7.00
pIC50 ([6]; Homo sapiens, MCF7): 5.30 to 6.00
Compound: CCC(=C(c1ccc(O)cc1)c1ccc(OCCN(C)C)cc1)C1CCCC1 [Compound 7, 2-cyclopentyl-1-[p-(N,N-dimethyl-2-aminoethoxy)phenyl]-1-(p-hydroxyphenyl)-1-butene]
antiprogestanic / synergistic effect with medroxyprogesterone acetate (in words) [7, 9]: clear dose dependant antiprogestanic effect
oestrogenic effect, % less than that of oestradiol 0.05 mg/kg ([4]; 0.5 mg/kg): 75%
Given alone: oestrogenic effect (in words) [4]: oestrogenic
estrogenic effect (in words) [4]: dose dependent
progestanic effect (in words) ([8]; given alone): did not posses any progestanic effects of its own
inhibition of oestradiol induced effect on mouse uterus ([5]; 5 mg/kg): 48%
Given with oestradiol: reduction in mice uterus weight ([5]; Table 2, 5 mg/kg, with oestradiol 0.05 mg/kg): 48%

pIC50 [1]: 6.00 to 7.00
pIC50 ([6]; Homo sapiens, MCF7): 5.00 to 6.00
Compound: CCC(c1ccc(O)cc1)C(CC)C1CCCC1 (stereo not shown) [Compound 9, 3-cyclopentyl-4-(p-hydroxyphenyl)-hexane]

pIC50 [1]: 4.00 to 5.00
pIC50 ([6]; Homo sapiens, MCF7): 5.00 to 5.30
Compound: CC/C(=C(\c1ccccc1)c1ccc(OCCNC)cc1)C1CCCC1 [Compound 10, (Z)--2-cyclopentyl-1-[p-(N--methyl-2-aminoethoxy)-phenyl]-1-phenyl-1-butene, hydrochloride]

pIC50 [1]: 4.00 to 5.00
pIC50 ([6]; Homo sapiens, MCF7): 5.00 to 6.00
Compound: CCC(=C(c1ccc(OC)cc1)c1ccc(OCCN(C)C)cc1)C1CCCC1 [Compound 11, 2-cyclopentyl-1-[p-(N,N-dimethyl-2-aminoethoxy)phenyl]-1-(p-methoxyphenyl)-1-butene]
relative tumour size compared to controls which is 100 ([2]; 1.0 mg/kg): 87
relative tumour size compared to controls which is 100 ([2]; 5.0 mg/kg): 87
relative tumour size compared to controls which is 100 ([2]; 10.0 mg/kg): 50
Given with medroxyprogesterone acetate: effect (in words) [7]: synergistic
Given with medroxyprogesterone acetate: reduction in mice uterus weight [7]: 67%
reduction of mouse uterus weight together with medroxyprogesterone acetate ([7]; together with medroxyprogesterone acetate, vs 40% for the acetate alone): 67%
Given alone: progestanic effect (in words) ([8]; given alone): progestanic
Given alone: reduction in mice uterus weight ([8]; given alone): 20%
progestanic effect (in words) ([8]; given alone): purely due to its progestanic effect
reduction of mouse uterus weight ([8]; given alone, 0.5 mg/kg): 20%

pIC50 [1]: 4.00 to 5.00
Compound: CCC(CO)C(CC)c1ccc(O)cc1 (stereo not shown) [Compound 12, 2-ethyl-3-(p-hydroxyphenyl)-1-pentanol]
